Entries after “also recorded” stand apart in the source; their conditions may differ.

One data set relates to Vero cells. In words: Cytotoxicity in Vero cells. Type of data set: cell-based, African Green monkey.
The test system of the next data set is HIV-1. Type of data set: cell-based.
The test system of another data set is primary human PBM cells. In words: Cytotoxicity in primary human PBM cells. Type of data set: cell-based.

Consider `Cc1c2c(nn1CC(=O)NCc1ccccc1Cl)-c1ccccc1S(=O)(=O)N2C` [Compound 6a], for which the “Toxicity in Vero cells (in words)” value with Vero cells is listed as “toxic; also recorded: displayed toxicity”. The “Toxicity in CEM cells (in words)” value with CEM cells is “no toxicity”. For the same molecule, in the data set on HIV-1, the “Anti-HIV-1 activity (in words)” value was “active”. In addition, the “Toxicity in primary human PBM cells (in words)” value in the data set with primary human PBM cells is “no toxicity”.

On to `Cc1c2c(nn1CC(=O)NCc1ccc(F)cc1)-c1ccccc1S(=O)(=O)N2C` [Compound 6c], for which the “Toxicity in CEM cells (in words)” value with CEM cells is reported as “toxic”.

For `Cc1c2c(nn1CC(=O)NCc1ccccc1Br)-c1ccccc1S(=O)(=O)N2C` [Compound 6d], the “Toxicity in Vero cells (in words)” value in the data set with Vero cells is on record as “toxic”. Besides, the “Toxicity in CEM cells (in words)” value in the data set with CEM cells is “toxic”. In the data set with HIV-1, the “Anti-HIV-1 activity (in words)” value is “active”.

On to `COc1ccccc1CNC(=O)Cn1nc2c(c1C)N(C)S(=O)(=O)c1ccccc1-2` [Compound 6e], for which, in the data set with Vero cells, the “Toxicity in Vero cells (in words)” value is recorded as “no toxicity”. The “Toxicity in CEM cells (in words)” value in the data set with CEM cells was “no toxicity”. Also, the “Anti-HIV-1 activity (in words)” value with HIV-1 was “active”. Also, the “Toxicity in primary human PBM cells (in words)” value with primary human PBM cells was “no toxicity”.

Turning to `COc1cccc(CNC(=O)Cn2nc3c(c2C)N(C)S(=O)(=O)c2ccccc2-3)c1` [Compound 6f], the “Toxicity in Vero cells (in words)” value with Vero cells is “toxic”. Moreover, in the data set on CEM cells, the “Toxicity in CEM cells (in words)” value is recorded as “toxic”. In addition, the “Toxicity in primary human PBM cells (in words)” value in the data set on primary human PBM cells is on record as “toxic”.

`COc1ccc(CNC(=O)Cn2nc3c(c2C)N(C)S(=O)(=O)c2ccccc2-3)cc1` [Compound 6g]: the “Toxicity in Vero cells (in words)” value with Vero cells was “no toxicity”. Besides, the “Toxicity in CEM cells (in words)” value in the data set on CEM cells is given as “no toxicity”. For the same molecule, the “Anti-HIV-1 activity (in words)” value in the data set on HIV-1 was “active”. Further, the “Toxicity in primary human PBM cells (in words)” value in the data set on primary human PBM cells is reported as “no toxicity”.

Consider `Cc1ccc(CNC(=O)Cn2nc3c(c2C)N(C)S(=O)(=O)c2ccccc2-3)cc1` [Compound 6i], for which the “Toxicity in Vero cells (in words)” value in the data set with Vero cells is recorded as “no toxicity”. Besides, the “Toxicity in CEM cells (in words)” value with CEM cells is given as “no toxicity”. Also, the “Anti-HIV-1 activity (in words)” value in the data set with HIV-1 is “active”. In addition, the “Toxicity in primary human PBM cells (in words)” value with primary human PBM cells is recorded as “no toxicity”.

As for `Cc1c2c(nn1CC(=O)Nc1ccccc1)-c1ccccc1S(=O)(=O)N2C` [Compound 7a], the “Anti-HIV-1 activity (in words)” value in the data set on HIV-1 was “effective inhibitors; also recorded: active”.

As to `Cc1c2c(nn1CC(=O)Nc1ccccc1F)-c1ccccc1S(=O)(=O)N2C` [Compound 7b], the “Anti-HIV-1 activity (in words)” value in the data set on HIV-1 was “effective inhibitors; also recorded: active”.

In the case of `Cc1c2c(nn1CC(=O)Nc1ccccc1Br)-c1ccccc1S(=O)(=O)N2C` [Compound 7c], in the data set on HIV-1, the “Anti-HIV-1 activity (in words)” value was “effective inhibitors; also recorded: active”.

Turning to `Cc1c2c(nn1CC(=O)Nc1cccc(Br)c1)-c1ccccc1S(=O)(=O)N2C` [Compound 7d], the “Anti-HIV-1 activity (in words)” value with HIV-1 is listed as “effective inhibitors; also recorded: active”.

As to `COc1cccc(NC(=O)Cn2nc3c(c2C)N(C)S(=O)(=O)c2ccccc2-3)c1` [Compound 7e], the “Toxicity in Vero cells (in words)” value with Vero cells is “no toxicity”. In addition, in the data set with HIV-1, the “Anti-HIV-1 activity (in words)” value is listed as “effective inhibitors; also recorded: active”.
